Reference: US6054437A, “Method for inducing death of neoplastic cells using piperazine derivatives” (Hitachi Chemical Research Center, Inc., priority 1997, dated 2000)
“Also recorded” adds a separate entry of the source. Structures can show the parent of a compound that is named as a salt. Where two headings read alike, the source gives them in different places.

Experiments:
[1] = system: human breast cancer cells; assay: Subrenal capsule (SRC) tumor implant assay, breast cancer; assay type: in vivo, human tumor in BDF/1 mice
Procedure: FIG. 18 is a graph showing the relationship between the change in size of tumor and the dosage of NCO-700 in a sub-renal capsule assay of human breast cancer in BDF/1 mice.
A tumor implant model, where human tumors were implanted into the renal capsule of mice was performed. The tumors successfully escaped the immune system of the mouse and grew over a six-day period. The advantage of this assay is that the effect of chemotherapeutic agents can be tested in vivo. This model was developed at the University of California, Irvine by Stratton et al. (Gynecologic Oncology 17:185-188, 1984). Human tumors were implanted on day one and were exposed to drug on days two-six. The size of the implant was determined at time zero and at the end of five days of drug treatment, and the difference in size of the implanted tumor at day six, when compared to control animals not exposed to drug, is referred to herein as the delta mean.
The effect of NCO-700 on a breast cancer line was tested in the SRC assay. Three groups of animals (n=18 total) were tested with three concentrations of NCO-700 including, 10 mg/kg, 25 mg/kg and 50 mg/kg. […] These studies confirm the high potential of NCO-700 and related compounds as new anti-neoplastic agents.

[2] = Acute toxicity test, i.v. (LD50); details: rat, in vivo, iv, rats
Text: This non-toxicity of the compounds makes it possible to administer the compounds to patients daily for a long period of time without interruption, without significant side effects, until the cancer tumors are suppressed. The non-toxicity, the apoptotic effects and the reversal of multidrug resistance of the compounds will change the procedures of conventional chemotherapy completely.

[3] = system: HS-578T (breast); assay: Cancer cell survival assay, HS-578T; assay type: cell-based, human; details: seven days, alone
Procedure: Cell survival was assayed in cultured tumor cells. From 500-1000 cells per well were plated in 24-welled culture dishes and exposed to drug for seven days. After drug exposure, a computerized cell imaging technique was utilized to ascertain the number of viable cells remaining in each culture. From the data, survival curves were plotted and a ED50 (drug concentration that permits 50% cell survival) were calculated.
The cancer cell survival assay is an important additional in vitro assay to assess the anti-neoplastic activity of compounds as the cells are given a prolonged exposure (seven days) to the drug. FIGS. 9-16 show the effect of increasing the dose of NCO-700 on the survival of a number of cancer cell lines. […] In the figures, the vertical axis is the object area, which is the number of surviving cancer cells calculated by a computer.

[4] = system: PC-3 (prostate tumor cell line); assay: Apoptosis induced DNA fragmentation (agarose gel); assay type: cell-based, human; details: PC-3, 50 μM, 48 hours
Procedure: PC-3, a prostate tumor cell line, was treated with 25 μM TOP-008, 50 μM NCO-700, or water for 48 hours. The DNA from each sample was purified by phenol extraction, and the fragmentation was resolved on an agarose gel.

[5] = system: HS-578T (breast); assay: Cancer cell death assay (LDH release), HS-578T; assay type: cell-based, human; details: HS-578T, 25 μM, 1,000 and 1,500 cells/well (FIGS. 34, 35)
Procedure: 1. Cancer Cell Death Assay
Cell death was measured quantitatively by the release of a marker intracellular enzyme, lactate dehydrogenase (LDH), from damaged or killed cells. LDH released into the extracellular fluid, was measured 24 hours after drug exposure to cancer cells and the enzyme activity was determined by the method of Decker et al. (J. Immunolog Methods 15:61-99, 1988).
A series of analogs related to NCO-700 were assayed in the cancer cell death assay. […] It should be stressed that these analogs were tested alone, without any added chemotherapeutic agent.
Based on Experiment 1 above, the anti-cancer activity of NCO-700, TOP-008, and analogs, TOP-201, 202, 203, 204, 205, 206, 207, and 007, was tested in cancer cell death assays of human cancer cell line HS-578T. In FIGS. 34 (1,000 cells/well) and 35 (1,500 cells/well), a bar graph indicates the activity of a particular analog as measured by the % LDH released (DMSO, dimethyl sulfoxide=control), with higher values of LDH released indicating greater anti-neoplastic activity. All analogs were tested at a concentration of 25 μM.

[6] = system: KB-V-1 (resistant); assay: Cell survival assay with vinblastine, resistant cells; assay type: cell-based, human; details: for IC50: Homo sapiens, KB-V1
Procedure: where the effect of NCO-700 to enhance cancer cell killing by vinblastine was measured.
In the first two in vitro assays, the drug accumulation assay and the cell survival assay, a human pharyngeal carcinoma cell line (KB-V-1) which is highly resistant to anticancer drugs was used. This cell line was developed by Drs. Ira Pastan and Michael Gottesman of the National Cancer Institute, by step-wise selection in colchicine of drug-resistant cells. The control cancer cell line (KB-3), from which the resistant cell lines were derived, is sensitive to anticancer drugs. The resistant KB-V-1 cell line is approximately 275 times more resistant to vinblastine than the sensitive KB-3 line and has a greatly amplified mdr gene which generates the observed resistance.
The cell survival experiments shown above were performed by plating KB-3 (sensitive) and KB-V-1 (resistant) cells in 32 mm well plastic dishes at a cell density of 300-500 cells per well. Vinblastine and NCO-700 were added 16 hours after the initial cell plating. After 10 days of incubation at 37°, cell colonies were stained and counted.

Structure (SMILES): CCOC(=O)[C@@H]1O[C@H]1C(=O)N[C@@H](CC(C)C)C(=O)N1CCN(Cc2ccc(OC)c(OC)c2OC)CC1 [NCO-700, Bis[ethyl (2R,3R)-3-[(S)-3-methyl-1-[4-(2,3,4-trimethoxyphenylmethyl)piperazin-1-ylcarbonyl]butylcarbamoyl]oxirane-2-carboxylate] Sulfate]
- effect on tumor size ([1]; 10 mg/kg): no effect
- effect on tumor size ([1]; 25 mg/kg): significant anti-neoplastic effect
- effect on tumor size ([1]; 50 mg/kg): significant anti-neoplastic effect
- LD50 [2]: 317 mg/kg
- anti-neoplastic activity (cell survival) [3]: significant anti-neoplastic activity
- DNA fragmentation [4]: significant DNA fragmentation
- anti-neoplastic activity (% LDH released) [5]: fairly good anti-neoplastic activity
- IC50 ([6]; KB-V-1, + 25 μM NCO-700, read-out: vinblastine to kill 50% of cells): 0.148 µg/mL
- IC50 ([6]; KB-V-1, + 30 μM NCO-700, read-out: level of vinblastine needed to kill 50% of the tumor cells): 0.16 µg/mL
- enhancement of killing of resistant cells by vinblastine ([6]; drug-resistant cells, with vinblastine): enhanced killing of the drug-resistant cells; also recorded: dramatic effect; also recorded: highly significant increase in the killing of these cancer cells
